Here are results for five compounds from patent US20070135338A1, “Human GLP-1 mimetibodies, compositions, methods and uses” (priority 2004, published 2007).

One data set concerns normal dogs. Briefly: Gastric emptying in normal dogs. Type of data set: in vivo, beagle dogs. Conditions: lidamidine 0.63 mg/kg subcutaneously 60 minutes before the meal, GLP-1 MMB 0.1 mg/kg intravenously 15 minutes before the meal. As for the experimental part:
GLP-1 MMB delays gastric emptying in normal dogs. A gastric cannula was surgically implanted into female beagle dogs (10-15 kg) under general anesthesia and allowed-to recover for at least 2 weeks. Dogs were fasted for 24 hours after which water was freely available. The gastric cannula was opened and gastric juice and food remnants were removed with 40-50 ml of lukewarm water. Groups of six dogs were dosed subcutaneously with lidamidine, an alpha2 agonist (0.63 mg/kg), 60 minutes before the meal, a positive control for delay of gastric emptying. Dogs dosed with the vehicle control or GLP-1 MMB (0.1 mg/kg) were dosed intravenously in the cephalic vein 15 minutes before the meal. Five minutes before the meal, the gastric cannula was opened to determine the amount of fluid present in stomach for baseline value and fluid was promptly reintroduced. […] Glucose concentrations were evaluated for collected samples and used to determine the absolute amount of glucose remaining in the stomach at each time point. The percentage of glucose retained in the stomach was determined from the starting value and the concentration of glucose at each time point and plotted as a function of time. The time at which 50% of the gastric contents were retained was determined by fitting of the curves to a single exponential.

For data set [1] the following is noted: administered subcutaneously; cited from earlier work.
A further data set addresses T1, GLP-1R (Homo sapiens, UniProt P43220).
T1 construct: expressed in transfected cells; host or cells: HEK293
Nature of the data set: FACS binding assay, HEK293 cells over-expressing the GLP-1R. Conditions: 20 nM, 2 hours at 4° C., flow cytometry. As for the experimental part:
FACS Binding Assay. The activity of GLP-1 mimetibody was tested in an in vitro FACS binding assay. To determine whether the GLP-1 MMB binds the GLP-1R, HEK293 cells (1×10^6 cells) over-expressing the GLP-1R were incubated with GLP-1 MMB (20 nM) for 2 hours at 4° C. The cells were washed, and a fluorescently labeled secondary […] detection antibody (1 μg/mL goat anti-human IgG, Fc gamma specific) was added for 30 minutes at 4° C. The fluorescence intensity of the cells was monitored via flow cytometry.
(A flow cytometer gives signals particle by particle.)

For data set [2], the system named is diabetic db/db mice. Nature of the data set: HbA1c after chronic dosing to diabetic db/db mice. In kind it is in vivo. Conditions: 1 mg/kg daily for six weeks. As for the experimental part:
Effects of GLP-1 MMB on reducing HbAlc after chronic dosing to diabetic mice. As in Examples 11 and 12, ten-week old diabetic db/db mice were dosed daily with vehicle or GLP-1 MMB (1 mg/kg) for six weeks. Before and after six-weeks of dosing, whole blood samples were taken and analyzed for percent HbA1c.

For the next data set, the system named is diet induced obese mice. Nature of the data set: Oral glucose tolerance test in diet induced obese mice. Type of data set: in vivo. As for the experimental part:
GLP-1 MMB lowers blood glucose following an oral glucose tolerance test (OGTT) in diet induced obese mice. To develop a murine model of diet induced obesity, mice were maintained on a high fat diet for at least 27 weeks. Mice became obese and were determined to be diabetic when fasting blood glucose values exceeded 120 mg/dl. To evaluate the effect of GLP-1 MMB therapy on postprandial blood glucose levels, diet induced obese mice were fasted overnight and dosed subcutaneously with 0.02, 0.2, or 2 mg/kg GLP-1 MMB or vehicle control. Six hours after dosing, mice were given a 1.5 mg/g gastric gavage of glucose. Blood glucose levels were determined prior to MMB dosing, at t =0, 15, 30, 60, 90, 120, 150, and 180 minutes using tail vein blood.

In data set [3] the test system is diabetic db/db mice. Briefly: Fasting blood glucose during chronic dosing to diabetic db/db mice. In kind it is in vivo. Conditions: 1 mg/kg subcutaneously daily for six weeks. As for the experimental part:
Effects of GLP-1 MMB on fasting blood glucose during chronic dosing to diabetic mice. Ten-week old diabetic db/db mice were subcutaneously dosed daily with vehicle or GLP-1 MMB (1 mg/kg) for six weeks. Fasting blood glucose was measured twice per week during the course of the study.

Data set [4] relates to normal cynomolgus monkeys. Nature of the data set: Oral glucose tolerance test in normal cynomolgus monkeys. Type of data set: in vivo. Particulars: single dose 1 mg/kg. As for the experimental part: Effects of GLP-1 MMB on an oral glucose tolerance test in normal cynomolgus monkeys. An oral glucose tolerance test (OGTT) was done in normal cynomolgus monkeys prior to and six days after a single dose of the GLP-1 MMB (1 mg/kg). Briefly, at t=0, monkeys were given an oral gavage of 2.0 mg/g glucose, and blood glucose was measured at various times.

Data set [5] concerns diabetic db/db mice. Nature of the data set: Oral glucose tolerance test after chronic dosing to diabetic db/db mice. Conditions: 1 mg/kg daily. Type of data set: in vivo. As for the experimental part:
Effects of GLP-1 MMB on oral glucose tolerance test after chronic dosing to diabetic mice. As in Example 11, ten-week old diabetic db/db mice were dosed daily with vehicle or GLP-1 MMB (1 mg/kg) for six weeks. After 40 days of dosing, the mice were given an oral glucose tolerance test. Briefly, at t=0, mice were given an oral gavage of 1.0 mg/g glucose, and blood glucose was measured at various times.

The target of another data set is T2, DPP-IV (Homo sapiens, UniProt P27487).
T2 construct: purchased R&D Systems
T2 sequence (P27487 whole entry, species assumed): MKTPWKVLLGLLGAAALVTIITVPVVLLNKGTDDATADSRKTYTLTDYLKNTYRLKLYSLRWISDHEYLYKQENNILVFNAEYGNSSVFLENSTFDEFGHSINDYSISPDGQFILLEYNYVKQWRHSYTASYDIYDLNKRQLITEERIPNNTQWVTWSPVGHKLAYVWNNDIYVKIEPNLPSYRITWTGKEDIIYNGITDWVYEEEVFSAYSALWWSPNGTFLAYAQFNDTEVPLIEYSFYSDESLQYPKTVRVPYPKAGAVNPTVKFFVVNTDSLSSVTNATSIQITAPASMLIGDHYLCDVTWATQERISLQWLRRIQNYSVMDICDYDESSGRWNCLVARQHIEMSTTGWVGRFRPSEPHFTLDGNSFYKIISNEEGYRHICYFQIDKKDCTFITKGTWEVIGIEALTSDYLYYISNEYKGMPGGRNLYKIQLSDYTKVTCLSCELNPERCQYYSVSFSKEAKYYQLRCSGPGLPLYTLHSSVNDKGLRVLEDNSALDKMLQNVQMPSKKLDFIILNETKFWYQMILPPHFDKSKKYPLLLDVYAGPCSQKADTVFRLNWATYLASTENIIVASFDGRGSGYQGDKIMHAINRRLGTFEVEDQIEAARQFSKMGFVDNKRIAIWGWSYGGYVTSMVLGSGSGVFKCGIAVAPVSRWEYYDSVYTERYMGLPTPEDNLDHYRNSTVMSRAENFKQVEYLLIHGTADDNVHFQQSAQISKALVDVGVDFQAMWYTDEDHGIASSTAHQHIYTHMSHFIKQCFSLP
Briefly: DPP-IV cleavage assay. Conditions: 1.2 nM, DPP-IV 1 μg/mL, room temperature, 0-40 minutes. Type of data set: in vitro ADME. As for the experimental part:
DPP-IV cleavage assay. Since GLP-1 is rapidly inactivated by DPP-IV, an in vitro assay was established to quantitate intact (i.e. uncleaved) GLP-1 MMB. Briefly, GLP-1 MMB or peptide (1.2 nM) was incubated at room temperature with DPP-IV (1 μg/mL, R&D Systems). After various times (0, 5, 10, 15, 20, 30, 40 minutes), a DPP-IV inhibitor (100 μM, Linco) was added to quench the reaction. The amount of intact GLP-1 MMB or peptide was measured using the GLP-1 Active ELISA (Linco) and the GLP-1 MMB or peptides for the respective standard curves.

The subject of a further data set is control HEK293 cells. Nature of the data set: FACS binding assay, control HEK293 cells. Conditions: flow cytometry.
For data set [6], the system named is diabetic db/db mice. Briefly: Oral glucose tolerance test in diabetic db/db mice, single dose. In kind it is in vivo. Particulars: subcutaneous 0.02 to 2 mg/kg, all doses tested, 1.0 mg/g glucose. As for the experimental part:
Effects of GLP-1 MMB during an oral glucose tolerance test in diabetic mice. Eight-week old diabetic db/db mice were fasted for 6 hours prior to a subcutaneous injection of the GLP-1 MMB (0.02 to 2 mg/kg). Following dosing, mice were fasted for an additional six hours and a baseline fasting blood glucose was measured. At t=0, mice were given an oral gavage of 1.0 mg/g glucose, and blood glucose was measured at various times.

Data set [7] in a line: Human serum stability assay. Particulars: 30 nM, 37° C., GLP-1 Active ELISA. In kind it is in vitro ADME. As for the experimental part: Human Serum stability assay. The stability of the GLP-1 MMB in serum was also measured to ensure that other serum proteases were not able to cleave and inactivate the GLP-1 MMB. Briefly, GLP1 peptide or the GLP1 MMB (30 nM) was incubated in human serum at 37° C. After various times, the reactions were quenched with a DPP-IV inhibitor (100 μM, Linco), and the samples were analyzed using the GLP-1 Active ELISA from Linco.
Background: An ELISA detects its analyte on a solid surface through an enzyme-linked reagent.

For the next data set, the system named is db/db mice. Briefly: Intraperitoneal glucose tolerance test (IPGTT) in db/db mice. Type of data set: in vivo. As for the experimental part: GLP-1 MMB lowers blood glucose in an intraperitoneal glucose tolerance test (IPGTT) in db/db mice. Male db/db mice of approximately 13-15 weeks of age were randomized into treatment groups of six mice based on fasting blood glucose levels. Mice were dosed with either 0.02 mg/kg or 0.1 mg/kg of GLP- I MMB or 0.1 mg/kg of negative control MMB six hours prior to the glucose tolerance test. Five minutes before the glucose tolerance test, a glucose measurement was taken with a hand held glucometer from tail vein blood. Mice were then dosed intraperitoneally with 1 mg/g of D-glucose and blood glucose levels were monitored at 10 min,20 min,30 min, 60 min, 90 min, 120 min, 150 min, and 180 min. […] Additional groups of animals treated in the same manner were sacrificed for measurement of insulin levels at t=10 minutes.

The next data set has as its system diabetic mice (db/db). Nature of the data set: Insulin staining in islets of diabetic mice (db/db) after a single dose. Particulars: single subcutaneous dose 1.5 mg/kg, four weeks later. Type of data set: in vivo. As for the experimental part:
Effects of GLP-1 MMB on insulin staining in islets of diabetic mice (db/db) after a single dose. Twelve-week old diabetic mice (db/db) were treated with a single subcutaneous dose of the GLP-1 MMB (1.5 mg/kg), and the pancreata were harvested four weeks later. The pancreata were sectioned and stained for the presence of insulin.

Data set [8] concerns patients with type 2 diabetes. Particulars: type 2 diabetic patients, cited from earlier work.
The subject of a further data set is RINm cells. Nature of the data set: Insulin secretion in RINm cells (ELISA). Conditions: peptides 0-5 nM, mimetibodies 5 or 50 nM. In kind it is cell-based. As for the experimental part:
GLP-1 MMB causes insulin secretion in RINm cells. To test the effect of GLP-1 MMB in insulin secretion, RINm cells were treated with increasing concentrations of GLP-1 (7-36) peptide (0-5 nM), exendin-4 peptide (0-5 nM), or various GLP-1 mimetibodies (5 or 50 nM) and the amount of insulin secreted was measured via ELISA. All GLP-1 MMBs tested had activities in stimulating insulin secretion in RINm cells (FIG. 6).

T1 sequence (P43220 24-463, species assumed): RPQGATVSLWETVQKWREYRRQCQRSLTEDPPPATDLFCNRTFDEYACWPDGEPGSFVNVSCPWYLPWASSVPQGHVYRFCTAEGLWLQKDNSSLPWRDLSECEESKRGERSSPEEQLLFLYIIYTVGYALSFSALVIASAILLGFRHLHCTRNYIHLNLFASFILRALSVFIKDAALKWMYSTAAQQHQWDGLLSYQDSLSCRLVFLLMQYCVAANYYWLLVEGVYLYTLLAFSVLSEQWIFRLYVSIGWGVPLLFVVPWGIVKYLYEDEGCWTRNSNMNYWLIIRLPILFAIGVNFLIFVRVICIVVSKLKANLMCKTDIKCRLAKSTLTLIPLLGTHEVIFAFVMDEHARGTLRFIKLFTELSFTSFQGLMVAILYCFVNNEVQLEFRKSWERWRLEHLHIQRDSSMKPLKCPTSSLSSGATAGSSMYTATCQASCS

As to `CN=C(N)NC(=O)Nc1c(C)cccc1C` [lidamidine, reference compound], in the data set with normal dogs, the “time in which 50% of the gastric contents were emptied” value was 30.60 ± 6.47 min.

Consider GLP-1 (7-36) amide: GLP-1 (7-36) amide, for which the time action result in data set [1] is given as “about 50 minutes”.

With “GLP-1 MMB: GLP-1 mimetibody construct (SEQ ID NO:2): GLP-1 peptide (7-36), flexible linker, J region, IgG1 hinge, CH2 and CH3”, the “binding to HEK293 cells over-expressing the GLP-1R” value with GLP-1R is “binds”. Further, the “increase of HbA1C during the six-week period” value in the data set on diabetic db/db mice [2] turned out to be 109%. In the data set on diet induced obese mice (all doses), the “glucose areas under the curve between t=0 and t=180” value is on record as “significant lowering”. In addition, in the data set with diet induced obese mice (subcutaneous 0.02, 0.2, or 2 mg/kg, six hours before 1.5 mg/g glucose), the “fasting blood glucose values at t=0 and all subsequent time points” value is “dose dependent decrease”. In the data set with diabetic db/db mice [3], the “difference in fasting blood glucose, control vs treated, by six weeks” value is on record as “more than 200 mg/dL” and the “fasting blood glucose by six weeks” value worked out at 221 mg/dL. Besides, in data set [4], the “insulin levels in OGTT six days after dosing” value was “significantly increased”. The “blood glucose levels in OGTT six days after dosing” value in [4] (2.0 mg/g glucose) was “significantly reduced”. Moreover, the “glucose excursion during an oral glucose tolerance test after 40 days of dosing” value in the data set with diabetic db/db mice [5] is given as “effective in lowering the glucose excursion”. The “time in which 50% of the gastric contents were emptied” value in the data set on normal dogs was 59.23 ± 14.46 min. The “resistance to cleavage by DPP-IV relative to the GLP-1 peptide” value with DPP-IV is reported as “significantly more resistant”. In addition, the “binding to control HEK293 cells” value in the data set with control HEK293 cells is given as “does not bind”. The “glucose excursion during an oral glucose tolerance test” value in the data set on diabetic db/db mice [6] was “effective in lowering the glucose excursion”. Besides, in data set [7], the “stability in human serum” value was “stable in human serum for 24 hours”. Also, in the data set on db/db mice (0.02 mg/kg or 0.1 mg/kg), the “amount of insulin released at t=10 minutes” value is listed as “dose dependent increase”. Further, in the data set with db/db mice (0.02 mg/kg or 0.1 mg/kg six hours prior, 1 mg/g D-glucose), the “blood glucose levels over the full time course of IPGTT” value is “significant lower”. The “insulin staining in pancreata relative to control animals” value in the data set on diabetic mice (db/db) is “significantly more insulin staining”.

Turning to “GLP-1: Glucagon like peptide-1 given as six-week infusion in the clinic (HAEGTFTSDVSSYLEGQAAKEFIAWLVKGRG)”, in data set [8] (six-week infusion), the “fasting and 8-hour mean plasma glucose levels” value is given as “lowered”. The β-cell function result in data set [8] is on record as “improvement in β-cell function”.

Regarding “exendin-4 peptide: exendin-4 peptide, comparator in insulin secretion assay”, the “insulin secretion in RINm cells” value in the data set with RINm cells is recorded as “stimulates insulin release”.
